According to patent US11149031B2, “Substituted N-(3-fluoropropyl)-pyrrolidine compounds, processes for their preparation and therapeutic uses thereof” (SANOFI, priority 2016, dated 2021):

What was measured:
[1] = molecular target: His6-ERα298-554 WT (ERα ligand-binding domain) (Homo sapiens (Human), UniProt P03372); assay: Test A: biochemical antagonist activity, LanthaScreen TR-FRET ERα coactivator assay, WT; conditions: protocol with 3 nM estradiol; read-out: Antagonism WT IC50
Protocol: (§1) Test A: Biochemical Antagonist Activity on Wild Type (WT) and Mutants
(§2) Estrogen Receptors Test A involves measuring the in vitro antagonist activity of the compounds of the invention on estrogen receptors.
(§3) The measurements of the antagonist activities were made using an estrogen receptor coactivator assay as described hereunder.
(§4) Antagonistic potency of compounds was evaluated using LanthaScreen® TR-FRET ERα Coactivator Assay (ThermoFisher) with modifications. […] The assay works in a homogeneous mix-and-read format. In a typical experiment, a 4 μL mixture of 0.5 nM His6-ERα298-554, 0.5 nM Tb-labeled His6 antibody, 250 nM PGC1a peptide, and 3 nM estradiol (or 10 nM estradiol) in 100 mM potassium phosphate, pH 7.4, 0.01% Tween-20, 0.02% NaN3, 5 mM DTT, was added to 40 nL test compound in DMSO and incubated overnight at room temperature. The TR-FRET 520:495 nm emission ratio was calculated and used to determine the IC50 value from a dose response curve fit to the 4-parameter logistic equation.

[2] = molecular target: His6-ERα298-554 D538G mutant (ERα ligand-binding domain) (Homo sapiens (Human), UniProt P03372, D538G); assay: Test A: biochemical antagonist activity, LanthaScreen TR-FRET ERα coactivator assay, D538G mutant; conditions: protocol with 3 nM estradiol; read-out: Antagonism D538G IC50
Sequence of His6-ERα298-554 D538G mutant (ERα ligand-binding domain) (P03372 298-554 D538G): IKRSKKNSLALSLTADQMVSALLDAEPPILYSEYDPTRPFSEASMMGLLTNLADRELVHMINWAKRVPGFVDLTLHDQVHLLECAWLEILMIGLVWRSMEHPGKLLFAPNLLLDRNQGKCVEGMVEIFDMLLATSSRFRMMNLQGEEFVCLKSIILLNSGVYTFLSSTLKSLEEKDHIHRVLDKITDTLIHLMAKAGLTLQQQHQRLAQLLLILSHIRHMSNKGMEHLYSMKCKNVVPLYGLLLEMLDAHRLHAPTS
Protocol: as §1, §2, §3, §4

[3] = molecular target: His6-ERα298-554 Y537S mutant (ERα ligand-binding domain) (Homo sapiens (Human), UniProt P03372, Y537S); assay: Test A: biochemical antagonist activity, LanthaScreen TR-FRET ERα coactivator assay, Y537S mutant; conditions: protocol with 3 nM estradiol; read-out: Antagonism Y537S IC50
Sequence of His6-ERα298-554 Y537S mutant (ERα ligand-binding domain) (P03372 298-554 Y537S): as the sequence (P03372 298-554 D538G) above, with Y240S, G241D counted along it
Protocol: as §1, §2, §3, §4

[4] = molecular target: ERα in MCF7 cells (Homo sapiens (Human), UniProt P03372); assay: Test C: estrogen receptor degradation activity, ERα in cell western assay in MCF7 cells; format: cell-based; conditions: for DC50: 4 hours post compound addition, ERα in cell western, read-out: Degradation IC50; for % Degradation at 3 μM: 4 hours, relative to fulvestrant
Sequence of ERα in MCF7 cells (P03372 whole entry): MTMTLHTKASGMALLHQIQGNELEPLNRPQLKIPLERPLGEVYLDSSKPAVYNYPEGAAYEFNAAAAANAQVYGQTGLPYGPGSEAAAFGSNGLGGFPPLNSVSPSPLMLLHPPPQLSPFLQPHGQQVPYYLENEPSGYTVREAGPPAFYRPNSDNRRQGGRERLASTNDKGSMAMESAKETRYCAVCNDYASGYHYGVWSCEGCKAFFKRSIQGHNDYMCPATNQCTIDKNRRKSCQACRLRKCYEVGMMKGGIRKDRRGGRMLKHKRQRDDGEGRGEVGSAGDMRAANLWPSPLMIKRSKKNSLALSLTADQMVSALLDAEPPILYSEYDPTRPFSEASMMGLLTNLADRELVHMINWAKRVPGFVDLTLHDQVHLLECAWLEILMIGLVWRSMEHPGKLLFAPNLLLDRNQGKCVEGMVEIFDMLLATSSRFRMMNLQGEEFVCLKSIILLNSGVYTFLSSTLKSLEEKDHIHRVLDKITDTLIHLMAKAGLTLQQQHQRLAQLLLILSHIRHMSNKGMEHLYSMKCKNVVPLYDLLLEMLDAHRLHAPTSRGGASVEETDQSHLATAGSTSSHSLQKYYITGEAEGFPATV
Protocol: Test C: Estrogen Receptor Degradation Activity
Test C involves measuring the in vitro degradation activity of the compounds of the invention.
The measurements of the degradation activities were made using abreast cancer cell ERα in cell western assay as described hereunder.
MCF7 cells (ATCC) were seeded in 384 wells microplate (collagen coated) at concentration of >9990 cells/30 μL per well in red phenol free MEM alpha medium (invitrogen) containing 5% charcoal dextran striped FBS. The following day, 9 points serial 1:5 dilution of each compound were added to the cells in 2.5 μL at final concentrations ranging from 3-0.000018 μM or 0.1 μM for fulvestrant (using as positive control). At 4 hours post compounds addition the cells were fixed by adding 25 μL of formalin (final concentration 5% formalin containing 0.1% triton) for 10 minutes at room temperature and then washed twice with PBS. Then, 50 μL of LI-COR blocking buffer containing 0.1% Triton was added to plate for 30 minutes at room temperature. LI-COR blocking buffer was removed and cells were incubated overnight at cold room with 50 μL anti-ER rabbit monoclonal antibody (Thermo scientific MA1-39540) diluted at 1:>999 in LI-COR blocking buffer containing 0.1% tween-20. Wells which were treated with blocking but no antibody were used as background control. Wells were washed twice with PBS (0.1% tween-20) and incubated at 37° C. for 60 minutes in LI-COR (0.1% tween-20) containing goat anti-rabbit antibody Alexa 488 (1:>999) and Syto-64 a DNA dye (2 μM final concentration). Cells were then washed 3 times in PBS and scanned in ACUMEN explorer (TTP-Labtech). Integrated intensities in the green fluorescence and red fluorescence were measured to determine the levels of ERα and DNA respectively.

Sequence of His6-ERα298-554 WT (ERα ligand-binding domain) (P03372 298-554): as the sequence (P03372 298-554 D538G) above, with G241D counted along it

Cc1c(O)ccc2c1OCCC(c1ccc3c(c1)CCN3)=C2c1ccc(O[C@H]2CCN(CCCF)C2)cc1 [Example 118, 5-[4-[(3S)-1-(3-fluoropropyl)pyrrolidin-3-yl]oxyphenyl]-4-indolin-5-yl-9-methyl-2,3-dihydro-1-benzoxepin-8-ol]
IC50 [1]: 152 nM
IC50 [2]: 442 nM
IC50 [3]: 237 nM
DC50 [4]: 126 nM
% Degradation at 3 μM [4]: 74%

Oc1ccc2c(c1Cl)OCCC(c1ccc3[nH]ccc3c1)=C2c1ccc(O[C@H]2CCN(CCCF)C2)cc1 [Example 114, 9-chloro-5-[4-[(3S)-1-(3-fluoropropyl)pyrrolidin-3-yl]oxyphenyl]-4-(1H-indol-5-yl)-2,3-dihydro-1-benzoxepin-8-ol]
IC50 [1]: 29 nM
IC50 [2]: 178 nM
IC50 [3]: 104 nM
DC50 [4]: 5 nM
% Degradation at 3 μM [4]: 71%

Cc1cc(C2=C(c3ccc(O[C@H]4CCN(CCCF)C4)cc3)c3ccc(O)cc3S(=O)(=O)CC2)ccc1Cl [Example 236, 4-(4-chloro-3-methyl-phenyl)-5-[4-[(3S)-1-(3-fluoropropyl)pyrrolidin-3-yl]oxyphenyl]-1,1-dioxo-2,3-dihydro-1λ^6-benzothiepin-8-ol]
IC50 [1]: 8 nM
IC50 [2]: 54 nM
IC50 [3]: 29 nM
DC50 [4]: 0.3 nM
% Degradation at 3 μM [4]: 91%

Oc1ccc2c(c1)SCC(c1ccc(F)cc1Cl)=C2c1ccc(O[C@H]2CCN(CCCF)C2)cc1 [Example 22, 3-(2-chloro-4-fluoro-phenyl)-4-[4-[(3S)-1-(3-fluoropropyl)pyrrolidin-3-yl]oxyphenyl]-2H-thiochromen-7-ol]
IC50 [1]: 6 nM
IC50 [2]: 27 nM
IC50 [3]: 9 nM
DC50 [4]: 1 nM
% Degradation at 3 μM [4]: 95%

Oc1ccc2c(c1)SCCC(c1cccc(F)c1Cl)=C2c1ccc(O[C@H]2CCN(CCCF)C2)cc1 [Example 168, 4-(2-chloro-3-fluoro-phenyl)-5-[4-[(3S)-1-(3-fluoropropyl)pyrrolidin-3-yl]oxyphenyl]-2,3-dihydro-1-benzothiepin-8-ol]
IC50 [1]: 3 nM
IC50 [2]: 14 nM
IC50 [3]: 9 nM
DC50 [4]: 0.7 nM
% Degradation at 3 μM [4]: 86%

Oc1ccc2c(c1)SCCC(c1ccc(Cl)cc1F)=C2c1ccc(O[C@H]2CCN(CCCF)C2)cc1 [Example 167, 4-(4-chloro-2-fluoro-phenyl)-5-[4-[(3S)-1-(3-fluoropropyl)pyrrolidin-3-yl]oxyphenyl]-2,3-dihydro-1-benzothiepin-8-ol]
IC50 [1]: 5 nM
IC50 [2]: 26 nM
IC50 [3]: 16 nM
DC50 [4]: 0.5 nM
% Degradation at 3 μM [4]: 87%

Cc1cc2c(cc1O)OCCC(c1cccc(O)c1)=C2c1ccc(O[C@H]2CCN(CCCF)C2)cc1 [Example 136, 5-[4-[(3S)-1-(3-fluoropropyl)pyrrolidin-3-yl]oxyphenyl]-4-(3-hydroxyphenyl)-7-methyl-2,3-dihydro-1-benzoxepin-8-ol]
IC50 [1]: 4 nM
IC50 [2]: 59 nM
IC50 [3]: 44 nM
DC50 [4]: 1 nM
% Degradation at 3 μM [4]: 79%

Oc1ccc2c(c1F)OCCC(c1ccc3c(c1)NCC3)=C2c1ccc(O[C@H]2CCN(CCCF)C2)cc1 [Example 132, 9-fluoro-5-[4-[(3S)-1-(3-fluoropropyl)pyrrolidin-3-yl]oxyphenyl]-4-indolin-6-yl-2,3-dihydro-1-benzoxepin-8-ol]
IC50 [1]: 28 nM
IC50 [2]: 473 nM
IC50 [3]: 334 nM
DC50 [4]: 2 nM
% Degradation at 3 μM [4]: 88%

Cc1cc(F)ccc1C1=C(c2ccc(O[C@H]3CCN(CCCF)C3)cc2)c2cc(O)ccc2SCC1 [Example 180, 4-(4-fluoro-2-methyl-phenyl)-5-[4-[(3S)-1-(3-fluoropropyl)pyrrolidin-3-yl]oxyphenyl]-2,3-dihydro-1-benzothiepin-7-ol]
IC50 [1]: 7 nM
IC50 [2]: 36 nM
IC50 [3]: 16 nM
DC50 [4]: 3 nM
% Degradation at 3 μM [4]: 80%

Oc1ccc(C2=C(c3ccc(O[C@H]4CCN(CCCF)C4)cc3)c3ccc(O)cc3SCC2)c(F)c1 [Example 169, 4-(2-fluoro-4-hydroxy-phenyl)-5-[4-[(3S)-1-(3-fluoropropyl)pyrrolidin-3-yl]oxyphenyl]-2,3-dihydro-1-benzothiepin-8-ol]
IC50 [1]: 2 nM
IC50 [2]: 5 nM
IC50 [3]: 3 nM
DC50 [4]: 0.2 nM
% Degradation at 3 μM [4]: 85%

Cc1c(Cl)cccc1C1=C(c2ccc(O[C@H]3CCN(CCCF)C3)cc2)c2ccc(O)c(Cl)c2OCC1 [Example 109, 9-chloro-4-(3-chloro-2-methyl-phenyl)-5-[4-[(3S)-1-(3-fluoropropyl)pyrrolidin-3-yl]oxyphenyl]-2,3-dihydro-1-benzoxepin-8-ol]
IC50 [1]: 29 nM
IC50 [2]: 215 nM
IC50 [3]: 150 nM
DC50 [4]: 1 nM
% Degradation at 3 μM [4]: 90%

Cc1cc2c(cc1O)OCCC(c1cccc(Cl)c1C)=C2c1ccc(O[C@H]2CCN(CCCF)C2)cc1 [Example 135, 4-(3-chloro-2-methyl-phenyl)-5-[4-[(3S)-1-(3-fluoropropyl)pyrrolidin-3-yl]oxyphenyl]-7-methyl-2,3-dihydro-1-benzoxepin-8-ol]
IC50 [1]: 21 nM
IC50 [2]: 591 nM
IC50 [3]: 352 nM
DC50 [4]: 3 nM
% Degradation at 3 μM [4]: 87%

Cc1c(Cl)cccc1C1=C(c2ccc(O[C@H]3CCN(CCCF)C3)cc2)c2ccc(O)cc2OCC1 [Example 101, 4-(3-chloro-2-methyl-phenyl)-5-[4-[(3S)-1-(3-fluoropropyl)pyrrolidin-3-yl]oxyphenyl]-2,3-dihydro-1-benzoxepin-8-ol]
IC50 [1]: 6 nM
IC50 [2]: 50 nM
IC50 [3]: 25 nM
DC50 [4]: 0.6 nM
% Degradation at 3 μM [4]: 92%

O=S1(=O)CCC(c2cccc(F)c2Cl)=C(c2ccc(O[C@H]3CCN(CCCF)C3)cc2)c2ccc(O)cc21 [Example 232, 4-(2-chloro-3-fluoro-phenyl)-5-[4-[(3S)-1-(3-fluoropropyl)pyrrolidin-3-yl]oxyphenyl]-1,1-dioxo-2,3-dihydro-1λ^6-benzothiepin-8-ol]
IC50 [1]: 16 nM
IC50 [2]: 99 nM
IC50 [3]: 78 nM
DC50 [4]: 0.2 nM
% Degradation at 3 μM [4]: 95%

Oc1ccc2c(c1)C(c1ccc(O[C@H]3CCN(CCCF)C3)cc1)=C(c1ccc(Cl)cc1F)CCS2 [Example 181, 4-(4-chloro-2-fluoro-phenyl)-5-[4-[(3S)-1-(3-fluoropropyl)pyrrolidin-3-yl]oxyphenyl]-2,3-dihydro-1-benzothiepin-7-ol]
IC50 [1]: 25 nM
IC50 [2]: 135 nM
IC50 [3]: 54 nM
DC50 [4]: 3 nM
% Degradation at 3 μM [4]: 83%

Cc1ccc(C2=C(c3ccc(O[C@H]4CCN(CCCF)C4)cc3)c3cc(C)c(O)cc3OCC2)c(F)c1 [Example 140, 4-(2-fluoro-4-methyl-phenyl)-5-[4-[(3S)-1-(3-fluoropropyl)pyrrolidin-3-yl]oxyphenyl]-7-methyl-2,3-dihydro-1-benzoxepin-8-ol]
IC50 [1]: 36 nM
IC50 [2]: 644 nM
IC50 [3]: 542 nM
DC50 [4]: 3 nM
% Degradation at 3 μM [4]: 85%

Cc1ccc(C2=C(c3ccc(O[C@H]4CCN(CCCF)C4)cc3)c3ccc(O)c(Cl)c3OCC2)c(F)c1 [Example 108, 9-chloro-4-(2-fluoro-4-methyl-phenyl)-5-[4-[(3S)-1-(3-fluoropropyl)pyrrolidin-3-yl]oxyphenyl]-2,3-dihydro-1-benzoxepin-8-ol]
IC50 [1]: 30 nM
IC50 [2]: 221 nM
IC50 [3]: 129 nM
DC50 [4]: 3 nM
% Degradation at 3 μM [4]: 86%

Oc1ccc2c(c1Cl)OCCC(c1ccc3cc[nH]c3c1)=C2c1ccc(O[C@H]2CCN(CCCF)C2)cc1 [Example 123, 9-chloro-5-[4-[(3S)-1-(3-fluoropropyl)pyrrolidin-3-yl]oxyphenyl]-4-(1H-indol-6-yl)-2,3-dihydro-1-benzoxepin-8-ol]
IC50 [1]: 156 nM
IC50 [2]: 2290 nM
IC50 [3]: 1430 nM
DC50 [4]: 15 nM
% Degradation at 3 μM [4]: 81%
